Experimental data as given in ChEMBL document CHEMBL5465560, “Selectivity Literature for EUbOPEN Chemogenomic Library” (2024).

How the values were obtained:
[1] = test system: Epidermal growth factor receptor (Homo sapiens), P00533 [UNDEFINED MUTATION]; test: Selectivity interaction (KinomeScan (DiscoverX)) EUB0001049a EGFR; settings: at 1 µM
[2] = target: T1, Serine/threonine-protein kinase D2 (Homo sapiens) (UniProt Q9BZL6); test: Selectivity interaction (Millipore kinase profiler) EUB0000124b PRKD2; settings: at 10 µM
T1 sequence (whole entry): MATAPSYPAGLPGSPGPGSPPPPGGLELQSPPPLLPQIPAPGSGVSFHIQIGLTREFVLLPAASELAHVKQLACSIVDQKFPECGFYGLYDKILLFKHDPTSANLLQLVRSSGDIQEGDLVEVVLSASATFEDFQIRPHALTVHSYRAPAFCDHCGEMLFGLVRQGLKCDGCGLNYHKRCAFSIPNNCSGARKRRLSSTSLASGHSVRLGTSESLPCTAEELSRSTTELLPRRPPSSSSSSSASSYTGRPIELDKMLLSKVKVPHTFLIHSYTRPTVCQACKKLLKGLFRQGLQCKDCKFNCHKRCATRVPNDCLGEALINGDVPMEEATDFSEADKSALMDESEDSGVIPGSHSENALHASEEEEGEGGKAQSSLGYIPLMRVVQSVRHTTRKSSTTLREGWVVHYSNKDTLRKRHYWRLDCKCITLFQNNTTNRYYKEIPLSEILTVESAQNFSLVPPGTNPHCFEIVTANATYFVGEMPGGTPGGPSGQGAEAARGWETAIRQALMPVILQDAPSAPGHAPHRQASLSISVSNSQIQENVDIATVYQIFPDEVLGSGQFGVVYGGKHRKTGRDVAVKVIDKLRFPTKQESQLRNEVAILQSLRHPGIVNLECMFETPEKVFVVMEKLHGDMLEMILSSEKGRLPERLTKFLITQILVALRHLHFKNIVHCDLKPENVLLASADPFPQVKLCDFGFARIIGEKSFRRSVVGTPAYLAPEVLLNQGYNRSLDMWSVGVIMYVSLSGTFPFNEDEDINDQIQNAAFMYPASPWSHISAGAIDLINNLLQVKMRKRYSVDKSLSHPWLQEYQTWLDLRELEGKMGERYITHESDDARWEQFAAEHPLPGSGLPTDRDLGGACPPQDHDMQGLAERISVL

[3] = target: T2, Cyclin-dependent kinase-like 5 (Homo sapiens) (UniProt O76039); test: Selectivity interaction (KinomeScan (DiscoverX)) EUB0000666a CDKL5; settings: at 10 µM
T2 sequence (whole entry): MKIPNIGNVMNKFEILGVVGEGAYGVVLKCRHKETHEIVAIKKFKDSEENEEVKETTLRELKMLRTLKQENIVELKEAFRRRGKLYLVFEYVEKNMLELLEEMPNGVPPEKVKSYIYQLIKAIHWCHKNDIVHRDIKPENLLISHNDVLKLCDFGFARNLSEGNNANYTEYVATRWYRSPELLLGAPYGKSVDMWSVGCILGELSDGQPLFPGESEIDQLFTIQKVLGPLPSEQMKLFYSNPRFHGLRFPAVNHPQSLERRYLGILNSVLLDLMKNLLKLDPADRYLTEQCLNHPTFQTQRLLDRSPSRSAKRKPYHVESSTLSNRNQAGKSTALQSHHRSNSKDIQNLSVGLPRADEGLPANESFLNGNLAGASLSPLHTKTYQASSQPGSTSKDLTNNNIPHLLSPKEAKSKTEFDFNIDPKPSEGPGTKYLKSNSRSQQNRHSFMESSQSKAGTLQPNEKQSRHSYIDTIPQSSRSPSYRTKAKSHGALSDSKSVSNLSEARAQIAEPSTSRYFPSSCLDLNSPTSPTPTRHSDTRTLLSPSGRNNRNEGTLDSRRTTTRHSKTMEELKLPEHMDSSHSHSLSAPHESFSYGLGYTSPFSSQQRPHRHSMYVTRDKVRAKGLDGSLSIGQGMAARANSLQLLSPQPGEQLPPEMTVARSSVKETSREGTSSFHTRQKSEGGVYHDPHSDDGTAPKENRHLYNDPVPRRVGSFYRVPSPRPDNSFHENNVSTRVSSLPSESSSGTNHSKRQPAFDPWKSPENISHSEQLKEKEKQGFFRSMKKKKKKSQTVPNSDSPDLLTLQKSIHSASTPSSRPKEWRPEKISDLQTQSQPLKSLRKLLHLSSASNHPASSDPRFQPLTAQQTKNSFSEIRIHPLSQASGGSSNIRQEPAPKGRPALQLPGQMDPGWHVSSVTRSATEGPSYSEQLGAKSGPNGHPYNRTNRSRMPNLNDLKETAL

[4] = target: Platelet-derived growth factor receptor alpha (Homo sapiens, UniProt P16234); settings: at 10 µM
[5] = target: Nuclear body protein SP140-like protein (Homo sapiens) (UniProt Q9H930); test: Selectivity interaction (Bromodomain panel (DSF asssay)) EUB0000270b SP140L
[6] = target: T3, NUAK family SNF1-like kinase 2 (Homo sapiens) (UniProt Q9H093); test: Selectivity interaction (Ambit KINOMEscan and KiNATiv profiling in Jurkat cells) EUB0000090b NUAK2; assay type: cell-based; settings: at 1 µM
T3 sequence (whole entry): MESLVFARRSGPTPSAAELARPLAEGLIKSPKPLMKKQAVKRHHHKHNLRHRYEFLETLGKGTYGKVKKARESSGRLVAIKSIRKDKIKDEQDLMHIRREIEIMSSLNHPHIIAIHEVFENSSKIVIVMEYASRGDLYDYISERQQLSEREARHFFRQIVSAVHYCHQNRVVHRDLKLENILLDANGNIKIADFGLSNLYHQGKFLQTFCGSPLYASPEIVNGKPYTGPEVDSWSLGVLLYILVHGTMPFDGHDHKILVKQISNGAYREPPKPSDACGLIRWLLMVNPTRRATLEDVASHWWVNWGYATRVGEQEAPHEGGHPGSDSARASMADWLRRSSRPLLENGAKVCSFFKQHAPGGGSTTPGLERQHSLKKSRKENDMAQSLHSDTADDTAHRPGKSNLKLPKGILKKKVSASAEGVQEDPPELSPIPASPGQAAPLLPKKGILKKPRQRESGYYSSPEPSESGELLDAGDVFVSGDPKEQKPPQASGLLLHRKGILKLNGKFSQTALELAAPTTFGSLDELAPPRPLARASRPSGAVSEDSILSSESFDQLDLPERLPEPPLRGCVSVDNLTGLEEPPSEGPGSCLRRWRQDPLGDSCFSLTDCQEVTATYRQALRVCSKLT

[7] = target: Serine/threonine-protein kinase N2 (Homo sapiens, UniProt Q16513); settings: at 10 µM
[8] = target: Mitogen-activated protein kinase 4 (Homo sapiens) (UniProt P31152); test: Selectivity interaction (KinomeScan (DiscoverX)) EUB0000695a MAPK4; settings: at 100 nM
Mitogen-activated protein kinase 4 (Homo sapiens), sequence (P31152 whole entry): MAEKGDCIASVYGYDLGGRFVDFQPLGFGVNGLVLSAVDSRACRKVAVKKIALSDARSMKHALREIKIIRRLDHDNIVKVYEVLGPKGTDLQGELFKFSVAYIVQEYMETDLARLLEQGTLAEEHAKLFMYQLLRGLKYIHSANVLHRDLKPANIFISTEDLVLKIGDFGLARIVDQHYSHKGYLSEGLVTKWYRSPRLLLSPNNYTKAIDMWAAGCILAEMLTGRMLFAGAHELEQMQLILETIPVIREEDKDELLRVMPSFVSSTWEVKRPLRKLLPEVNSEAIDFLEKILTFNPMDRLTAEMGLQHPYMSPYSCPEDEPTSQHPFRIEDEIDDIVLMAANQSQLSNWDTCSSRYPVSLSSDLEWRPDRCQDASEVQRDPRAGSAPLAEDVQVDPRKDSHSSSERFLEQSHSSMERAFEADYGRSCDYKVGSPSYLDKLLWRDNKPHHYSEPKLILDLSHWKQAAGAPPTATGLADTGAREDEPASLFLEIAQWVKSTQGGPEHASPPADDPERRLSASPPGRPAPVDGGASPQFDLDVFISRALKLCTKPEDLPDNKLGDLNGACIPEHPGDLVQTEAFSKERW

Serine/threonine-protein kinase N2, sequence (Q16513 whole entry, looked up): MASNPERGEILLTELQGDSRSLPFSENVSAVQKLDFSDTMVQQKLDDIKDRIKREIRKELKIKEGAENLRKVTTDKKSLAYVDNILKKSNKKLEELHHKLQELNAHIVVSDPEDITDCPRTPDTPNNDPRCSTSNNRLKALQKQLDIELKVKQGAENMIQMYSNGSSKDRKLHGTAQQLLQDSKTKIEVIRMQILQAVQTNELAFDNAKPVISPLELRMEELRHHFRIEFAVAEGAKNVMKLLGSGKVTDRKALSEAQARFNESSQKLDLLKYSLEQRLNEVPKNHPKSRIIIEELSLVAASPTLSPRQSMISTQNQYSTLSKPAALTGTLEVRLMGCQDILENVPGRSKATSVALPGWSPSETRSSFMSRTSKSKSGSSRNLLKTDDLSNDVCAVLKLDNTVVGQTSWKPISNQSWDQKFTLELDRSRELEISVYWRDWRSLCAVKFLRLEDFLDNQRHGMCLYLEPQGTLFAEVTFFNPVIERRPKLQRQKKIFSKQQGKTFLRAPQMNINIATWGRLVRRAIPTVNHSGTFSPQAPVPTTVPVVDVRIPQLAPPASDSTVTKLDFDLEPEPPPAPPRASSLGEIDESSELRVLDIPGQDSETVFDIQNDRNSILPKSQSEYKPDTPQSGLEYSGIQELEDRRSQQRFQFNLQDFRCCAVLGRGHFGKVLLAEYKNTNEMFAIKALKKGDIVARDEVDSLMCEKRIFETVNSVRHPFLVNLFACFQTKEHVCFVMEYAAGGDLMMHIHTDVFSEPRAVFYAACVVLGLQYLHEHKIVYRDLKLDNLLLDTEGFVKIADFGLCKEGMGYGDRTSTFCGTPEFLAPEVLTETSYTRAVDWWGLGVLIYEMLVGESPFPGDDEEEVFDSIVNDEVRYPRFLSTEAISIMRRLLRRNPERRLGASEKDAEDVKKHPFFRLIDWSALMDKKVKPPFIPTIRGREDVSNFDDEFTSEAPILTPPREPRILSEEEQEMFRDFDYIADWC
Platelet-derived growth factor receptor alpha, sequence (P16234 whole entry): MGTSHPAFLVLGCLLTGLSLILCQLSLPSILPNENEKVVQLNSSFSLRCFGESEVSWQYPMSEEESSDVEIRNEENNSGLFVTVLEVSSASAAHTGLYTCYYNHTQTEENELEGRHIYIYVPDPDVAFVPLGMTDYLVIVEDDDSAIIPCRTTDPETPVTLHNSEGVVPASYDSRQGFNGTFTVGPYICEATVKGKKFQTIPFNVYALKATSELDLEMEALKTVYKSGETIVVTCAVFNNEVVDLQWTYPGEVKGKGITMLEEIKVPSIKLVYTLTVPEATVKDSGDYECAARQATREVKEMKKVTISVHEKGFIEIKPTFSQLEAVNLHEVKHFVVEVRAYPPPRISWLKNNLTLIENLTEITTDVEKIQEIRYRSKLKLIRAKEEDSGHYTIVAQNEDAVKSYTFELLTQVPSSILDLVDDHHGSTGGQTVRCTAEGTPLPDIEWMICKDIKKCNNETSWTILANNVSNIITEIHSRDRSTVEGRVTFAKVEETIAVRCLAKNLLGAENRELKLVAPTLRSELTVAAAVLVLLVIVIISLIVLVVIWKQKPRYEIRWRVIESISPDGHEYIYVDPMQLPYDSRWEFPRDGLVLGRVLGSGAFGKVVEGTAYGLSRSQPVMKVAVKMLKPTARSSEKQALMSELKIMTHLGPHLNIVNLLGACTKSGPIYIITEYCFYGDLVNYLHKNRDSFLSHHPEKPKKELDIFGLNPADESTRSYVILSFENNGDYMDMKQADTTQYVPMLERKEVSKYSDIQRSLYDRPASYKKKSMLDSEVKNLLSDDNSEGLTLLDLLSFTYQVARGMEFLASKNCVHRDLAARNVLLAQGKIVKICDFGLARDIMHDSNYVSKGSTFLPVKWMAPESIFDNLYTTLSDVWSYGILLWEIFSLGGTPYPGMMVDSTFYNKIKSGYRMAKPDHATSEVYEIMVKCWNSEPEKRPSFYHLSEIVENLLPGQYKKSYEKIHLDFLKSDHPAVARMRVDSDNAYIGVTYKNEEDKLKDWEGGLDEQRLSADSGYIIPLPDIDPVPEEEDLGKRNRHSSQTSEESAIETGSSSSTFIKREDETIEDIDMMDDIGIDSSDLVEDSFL
Epidermal growth factor receptor (Homo sapiens), P00533 [UNDEFINED MUTATION], sequence (P00533 whole entry, looked up, change not shown): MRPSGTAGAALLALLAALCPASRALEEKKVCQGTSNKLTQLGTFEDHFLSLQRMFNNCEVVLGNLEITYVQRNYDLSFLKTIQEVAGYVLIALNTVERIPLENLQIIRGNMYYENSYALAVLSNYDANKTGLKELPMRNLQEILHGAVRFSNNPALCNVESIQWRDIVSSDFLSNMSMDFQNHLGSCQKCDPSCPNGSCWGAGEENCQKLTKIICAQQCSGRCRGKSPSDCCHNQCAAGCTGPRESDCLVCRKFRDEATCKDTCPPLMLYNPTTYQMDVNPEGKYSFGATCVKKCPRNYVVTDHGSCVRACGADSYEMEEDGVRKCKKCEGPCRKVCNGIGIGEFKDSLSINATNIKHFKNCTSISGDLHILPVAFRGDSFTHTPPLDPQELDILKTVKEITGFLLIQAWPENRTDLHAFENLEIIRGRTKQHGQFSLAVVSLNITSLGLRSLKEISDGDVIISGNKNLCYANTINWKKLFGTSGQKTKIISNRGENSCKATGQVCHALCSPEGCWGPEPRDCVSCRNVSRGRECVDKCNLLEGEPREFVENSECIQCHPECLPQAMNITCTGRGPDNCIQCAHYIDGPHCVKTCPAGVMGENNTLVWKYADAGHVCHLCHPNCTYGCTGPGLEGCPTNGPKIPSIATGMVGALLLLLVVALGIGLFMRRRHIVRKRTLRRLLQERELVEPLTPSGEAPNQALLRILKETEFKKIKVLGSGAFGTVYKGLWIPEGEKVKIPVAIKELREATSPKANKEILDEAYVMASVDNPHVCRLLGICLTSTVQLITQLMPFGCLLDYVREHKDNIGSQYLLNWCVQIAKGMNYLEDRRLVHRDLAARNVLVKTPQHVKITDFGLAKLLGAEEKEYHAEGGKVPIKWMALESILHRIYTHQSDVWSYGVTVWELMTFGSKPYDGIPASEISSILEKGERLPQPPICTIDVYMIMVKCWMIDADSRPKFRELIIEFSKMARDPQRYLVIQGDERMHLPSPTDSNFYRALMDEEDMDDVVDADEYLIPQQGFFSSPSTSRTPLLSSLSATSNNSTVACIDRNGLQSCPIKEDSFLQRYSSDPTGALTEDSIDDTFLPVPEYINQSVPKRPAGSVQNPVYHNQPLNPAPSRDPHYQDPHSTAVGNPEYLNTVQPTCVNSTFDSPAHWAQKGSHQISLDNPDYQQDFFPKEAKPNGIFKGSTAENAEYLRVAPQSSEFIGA
Nuclear body protein SP140-like protein (Homo sapiens), sequence (Q9H930 whole entry): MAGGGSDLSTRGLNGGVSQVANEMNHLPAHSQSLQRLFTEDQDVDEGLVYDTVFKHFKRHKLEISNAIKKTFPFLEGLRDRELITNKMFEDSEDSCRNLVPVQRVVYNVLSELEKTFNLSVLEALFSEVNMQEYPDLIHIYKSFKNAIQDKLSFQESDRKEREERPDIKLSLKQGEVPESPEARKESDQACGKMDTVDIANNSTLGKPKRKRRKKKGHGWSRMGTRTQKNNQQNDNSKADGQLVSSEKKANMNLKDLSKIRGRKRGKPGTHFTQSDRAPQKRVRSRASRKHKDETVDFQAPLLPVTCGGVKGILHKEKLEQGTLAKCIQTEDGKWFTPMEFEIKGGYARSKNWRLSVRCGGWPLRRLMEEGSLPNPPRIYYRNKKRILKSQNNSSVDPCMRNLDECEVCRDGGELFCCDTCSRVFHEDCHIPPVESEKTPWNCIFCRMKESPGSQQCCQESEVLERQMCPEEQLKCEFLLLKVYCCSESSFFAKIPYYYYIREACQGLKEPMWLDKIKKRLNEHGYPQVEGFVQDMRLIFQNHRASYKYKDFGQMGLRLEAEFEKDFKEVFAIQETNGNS

COc1cc(Nc2nc(C)cc(-c3cnn4nc(OC)ccc34)n2)cc(C(F)(F)F)c1
% of control [1]: 77%

CC(=O)Nc1cccc(-n2c(=O)n(C3CC3)c(=O)c3c(Nc4ccc(I)cc4F)n(C)c(=O)c(C)c32)c1
% of control [2]: 98%

O=C(NOC[C@H](O)CO)c1ccc(F)c(F)c1Nc1ccc(I)cc1F
% of control [3]: 67%

CCN(CC)CCCCNc1ncc2cc(-c3cc(OC)cc(OC)c3)c(NC(=O)NC(C)(C)C)nc2n1
% of control [4]: 100%

Cc1cc(CN)cc(C)c1-c1ncn(C)c1-c1cncn1C
dTM [5]: -2.98 K

CN(C)C/C=C/C(=O)Nc1ccc(C(=O)N2CCCC(Nc3ncc(Cl)c(-c4c[nH]c5ccccc45)n3)C2)cc1 (stereo not drawn)
% of control [6]: 94%

Cc1cc([C@@H](C)Nc2ccccc2C(=O)O)c2nc(N3CCOCC3)cc(=O)n2c1 [AZD-6482]
% of control [7]: 98%

Cc1cc(F)c(C(=O)Nc2cccc(-c3nncn3C(C)C)n2)cc1-n1cnc(C2CC2)c1
% of control [8]: 100%
